Data published in PMC11277992, “New Zosteropenillines and Pallidopenillines from the Seagrass-Derived Fungus Penicillium yezoense KMM 4679” (Marine Drugs, 2024).

Legend:
Candida albicans KMM 455 = experiment: Antimicrobial activity, microbial growth in broth (OD620); type: cell-based; settings: for inhibition of growth at 100 µM: Candida albicans, KMM455, compound at 100 µM, read-out: Inhibition of Microbial Growth, % of Control, C. albicans
Procedure: (§1) The yeast-like fungus Candida albicans KMM 455 and bacterial strains Staphylococcus aureus ATCC 21027 and Escherichia coli VKPM (B-7935) (Collection of Marine Microorganisms PIBOC FEB RAS) were cultured on solid-medium Mueller–Hinton broth with agar (16.0 g/L) in a Petri dish at 37 °C for 24 h. The assays were performed in 96-well microplates in an appropriate Mueller–Hinton broth. Each well contained 90 µL of a bacterial or yeast-like fungal suspension (10^6 CFU/mL). Then, 10 µL was added of a compound diluted at concentrations from 1.5 µM to 100.0 µM using twofold dilution (DMSO concentration < 1%). Culture plates were incubated overnight at 37 °C, and the OD620 was measured using a Multiskan FC spectrophotometer (Thermo Scientific Inc., Beverly, MA, USA). The antibiotic gentamicin and antifungal agent nitrofungin were used as positive controls at 1 mg/mL; 1% DMSO in PBS served as a negative control. Examination was performed twice and in triplicate. The results were calculated as a percentage of the control data using SigmaPlot 14.0 software.

[1] = test system: Escherichia coli VKPM (B-7935); experiment: as above; type: cell-based; settings: read-out: Inhibition of Microbial Growth, % of Control, E. coli; for inhibition of growth at 100 µM: compound at 100 µM
Procedure: as §1

[2] = test system: Staphylococcus aureus ATCC 21027; experiment: as above; type: cell-based; settings: read-out: Inhibition of Microbial Growth, % of Control, S. aureus; for inhibition of growth at 100 µM: ATCC21027, compound at 100 µM
Procedure: as §1

[3] = test system: normal human kidney cells; experiment: Cytotoxic activity (MTT assay); type: cell-based; settings: 100 µM, 24 h
Procedure: (§2) The influence of compounds 1, 2 and 4–14 on the viability of normal human kidney […] cells, as well as human prostate PC-3, cervical HeLa and breast MCF-7 cancer cells, was measured using the MTT assay after 24 h of treatment.
(§3) The human prostate cancer cells PC-3 and CRL-1435 and the human embryonic kidney cells HEK-293 and CRL-1573TM were purchased from the American Type Culture Collection (ATCC; Manassas, VA, USA). PC-3 and HEK-293 cells were cultured in DMEM medium containing 10% fetal bovine serum (Biolot, St. Petersburg, Russia) and 1% penicillin/streptomycin (Biolot, St. Petersburg, Russia) at 37 °C in a humidified atmosphere with 5% (v/v) CO2. The cells were incubated in cultural flasks until sub-confluent (~80%).
(§4) PC-3 cells (5 × 10^3 cells/well) and HEK 293 cells (8 × 10^3 cells/well) were seeded in a 96-well plate and incubated overnight. Then, compounds were added at concentrations of 1–100 μM and incubated for another 24 h. Cell viability was then determined by the MTT (3-(4,5-dimethylthiazol-2-yl)-2,5-diphenyltetrazolium bromide) method according to the manufacturer’s instructions (Sigma-Aldrich, St. Louis, MO, USA). The absorbance of the converted formazan was measured using a Multiskan FC microplate photometer (Thermo Scientific, Waltham, MA, USA) at λ = 570 nm. The results are presented as percentages of the control data.

[4] = test system: human prostate PC-3 cancer cells; experiment: Cytotoxic activity (MTT assay); type: cell-based; settings: 100 µM, 24 h, MTT
Procedure: as §3
as §4, with “Then, compounds were added at concentrations of 1–100 μM and incubated for another 24 h.” left out

[5] = test system: cervical HeLa cancer cells; experiment: Cytotoxic activity (MTT assay); type: cell-based, human; settings: 24 h; for Cell Viability, % of Control, HeLa: 100 µM, MTT
[6] = test system: breast MCF-7 cancer cells; experiment: Cytotoxic activity (MTT assay); type: cell-based, human; settings: 100 µM, 24 h, MTT
Procedure: as §2
as §4, with “Then, compounds were added at concentrations of 1–100 μM and incubated for another 24 h.” left out

[7] = test system: autophagy-related cargo protein p62; parameters: method as in PMID 28218691; settings: PC-3 cells; cited from earlier work
[8] = test system: CoCl2-treated HEK-293 cells; experiment: Lipid peroxidation level (MitoCLox) in CoCl2-treated cells; type: cell-based, human; settings: MitoCLox fluorescence dye
Procedure: The fluorescence probe MitoCLox (Lumiprobe, Moscow, Russia) was used for the detection of the lipid peroxidation level in CoCl2-treated cells. It was added in the cells for 1 h at a concentration of 200 nM. After 1 h, the cells were washed with PBS and fluorescence was measured in ratiometric mode with λem = 520/590 nm using a PHERAStar FS plate reader (BMG Labtech, Offenburg, Germany). The data were processed with MARS Data Analysis v. 3.01R2 (BMG Labtech, Offenburg, Germany) and calculated as a 520/590 ratio.

SMILES	inhibition of growth at 100 µM (Candida albicans KMM 455)	inhibition of growth at 100 µM [1]	inhibition of growth at 100 µM [2]	Cell Viability, % of Control, HEK-298 [3]	Cell Viability, % of Control, PC-3 [4]	Cell Viability, % of Control, HeLa [5]	Cell Viability, % of Control, MCF-7 [6]	effect on autophagy-related cargo protein p62 [7]	other results
O=[N+]([O-])c1ccc(O)c(Cl)c1 [nitrofungin, reference compound]	–	–	–	–	–	–	–	–	Inhibition of Microbial Growth, % of Control, C. albicans (Candida albicans KMM 455; positive control at 1 mg/mL): 98.13 ± 0.69 % of Control
C[C@H]1CC[C@@H]2[C@@H](C(=O)CCO)[C@](C)(O)C=C[C@H]2C1 [Compound 11, zosteropenilline G]	18.1 ± 2.58%	0%	16.9 ± 4.12%	93.97 ± 2.36 % of Control	93.97 ± 2.36 % of Control	34.35 ± 1.90 % of Control	81.00 ± 2.38 % of Control	upregulators	IC50 ([5]; Homo sapiens, HeLa, read-out: IC50, HeLa cell viability): 79.7 µM
CNC(C)C1CCC(N)C(OC2C(N)CC(N)C(OC3OCC(C)(O)C(NC)C3O)C2O)O1 (stereo not drawn) [Gentamicin, gentamicin, reference compound]	–	–	–	–	–	–	–	–	inhibition of growth at 1000 µg/mL ([1]; positive control at 1 mg/mL): 97.6 ± 2.1%; inhibition of growth at 1000 µg/mL ([2]; ATCC21027, positive control at 1 mg/mL): 98.6 ± 1.15%
CC1=C[C@H](O)[C@H]2C[C@@H](C)CC[C@@H]2[C@H]1C(=O)CCO [Compound 1, zosteropenilline M]	8.32 ± 0.62%	0%	30.1 ± 2.42%	95.16 ± 4.01 % of Control	89.25 ± 0.44 % of Control	66.49 ± 6.19 % of Control	86.42 ± 1.76 % of Control	–	lipid peroxide levels in CoCl2-treated HEK-293 cells [8]: significantly decreased
CC1(O)CCC2C(C=CC(C)(O)C2C(=O)CCO)C1 (stereo not drawn) [Compound 4, 8-hydroxyzosteropenilline G]	11 ± 2.31%	0%	0%	94.71 ± 1.53 % of Control	94.71 ± 1.53 % of Control	81.80 ± 6.76 % of Control	81.92 ± 3.92 % of Control	–	–
C[C@H]1CC[C@H]2[C@@H](C=C[C@]3(C)OCCC(=O)[C@H]23)[C@@H]1O [zosteropenilline A]	–	–	–	–	–	–	–	upregulators	–
C[C@@]1(O)CC[C@@H]2[C@H]3C(=O)CCO[C@@]3(C)C=C[C@H]2C1 [zosteropenilline C]	–	–	–	–	–	–	–	upregulators	–
CC(=O)[C@@H]1[C@H]2CC[C@H](CO)C[C@@H]2C=C[C@@]1(C)O [Compound 6, zosteropenilline P]	17.3 ± 2.55%	0%	29 ± 1.66%	83.26 ± 3.78 % of Control	83.15 ± 1.72 % of Control	71.44 ± 3.99 % of Control	82.05 ± 1.31 % of Control	–	–
